# Assay results reported in patent US20060100155A1, “Method for the therapeutic management of endometriosis” (priority 1999, published 2006).
# Non-standard residues stand in square brackets, D forms with d. Residues, ends and D or L forms follow the SMILES beside them. dPhe(4-Cl) = N[C@H](Cc1ccc(Cl)cc1)C(=O)O; d2Nal = N[C@H](Cc1ccc2ccccc2c1)C(=O)O; dCit = NC(=O)NCCC[C@@H](N)C(=O)O; d3Pal = N[C@H](Cc1cccnc1)C(=O)O
# System: patients with confirmed endometriosis
# Test: Weekly s.c. administration of 3 mg LHRH antagonist for 8 weeks to patients with confirmed endometriosis
# Assay type: in vivo, human
# Details: for hot flushes or other (estradiol) withdrawal symptoms / proliferation of the endometrium (histological biopsies): 3 mg weekly for 8 weeks; for proliferation of the endometrium (histological biopsies): at the end of treatment
# Description: The weekly administration of an adequate dose of an LHRH antagonist, e.g. 3 mg Cetrotide® s.c./per week over a period of eight weeks leads to a controlled suppression of estrogen secretion so that serum concentrations between about 35 pg/ml and about 80 pg/ml, preferably between about 45-75 pg/ml, more preferably between about 50-75 pg/ml are obtained. […] Also the development of osteoporosis can be avoided.
smiles,measurement,setting,value
CC(=O)N[C@H](Cc1ccc2ccccc2c1)C(=O)N[C@H](Cc1ccc(Cl)cc1)C(=O)N[C@H](Cc1cccnc1)C(=O)N[C@@H](CO)C(=O)N[C@@H](Cc1ccc(O)cc1)C(=O)N[C@H](CCCNC(N)=O)C(=O)N[C@@H](CC(C)C)C(=O)N[C@@H](CCCNC(=N)N)C(=O)N1CCC[C@H]1C(=O)N[C@H](C)C(N)=O [Cetrorelix acetate] (Ac-[d2Nal][dPhe(4-Cl)][d3Pal]SY[dCit]LRP[dA]-NH2),ovarian cyst formation,3 mg s.c. weekly for 8 weeks,No ovarian cyst formation occurred
same,progress of the disease confirmed by 2nd look laparascopy,3 mg s.c. weekly for 8 weeks,without any progress of the disease
same,hot flushes or other (estradiol) withdrawal symptoms,,avoiding any hot flushes or other withdrawal symptoms
same,proliferation of the endometrium (histological biopsies),,no proliferation of the endometrium
same,proliferation of the endometrium (histological biopsies),listed as Cetrorelix,without proliferation of the endometrium
same,hot flushes or other (estradiol) withdrawal symptoms,listed as Cetrorelix,without any signs of estradiol withdrawal symptoms
